Experimental data: patent publication US20010000731A1, “Method for the prevention and treatment of chronic venous insufficiency” (priority 1999, published 2001)

Test system: swelling of the recto-anus induced by croton oil
Assay: Croton oil-induced hemorrhoid model in rats (recto-anus coefficient, RAC)
Assay type: in vivo, rat
Conditions: male SD rats; pure alkaloid oral 1 mg/kg; RAC determined 24 hours after induction; FIG. 3
Protocol: Male SD rats (6 weeks old, approximately 140 g) were purchased from Harlan Sprague Dawley and allowed to acclimate for 1 week. The rats were maintained in a pathogen-free facility in accordance with the National Research Council of Laboratory Animal care and use guidelines. Each experiment was preformed with age-matched rats 7- 8 weeks old. The croton oil-induced hemorrhoid model in rats was performed according to the method published by Nishiki (Nishiki et al. (1988) Folia Pharmacology Japan 92:215- 225; Nishiki et al. (1988) Folia Pharmacol. Japan 92:227-240). Briefly, a cotton swab with a diameter of 4 mm soaked with 0.16 mL of inducer (deionized water: pyridine : ethyl ether: 6% croton oil/ethyl ether (1:4:5:10) was applied to the rat's anus for 12 seconds. The final concentration of croton oil was 3%. The edema developed linearly until 7-8 hours after application and the severity of the edema was sustained for more than 24 hours. Twenty-four hours later, recto-anus tissue (approx. 10 mm long) was isolated after the rats were euthanized. The weights of rat body and recto-anus were measured. The recto-anus coefficient (RAC) was calculated using the formula: weight of recto-anus (mg)/body weight (g).
The average RAC of croton oil-treated rats was 2.10, which was 38.2% higher than that the rats treated with vehicle only (RAC=1.52). Vehicle alone did cause significant swelling of the recto-anus as compared with the rats without any treatment (RAC=0.98). Twenty-four hours after hemorrhoid induction with croton oil followed by treatment orally with prickly ash extract at either 6 mg/kg or 30 mg/kg and by treatment topically with prickly ash extract at 6 mg/mL in 1:1 aquaphor, the RAC of rats was determined.
This experiment was performed as described in Example 5. […] Twenty-four hours after hemorrhoid induction with croton oil followed by treatment orally with the pure alkaloids isolated from prickly ash extract at 1 mg/kg, the RAC of rats was determined. […]

Q: With COc1cc2c(cc1O)C[C@H]1c3c(cc(OC)c(O)c3-2)CC[N+]1(C)C [Laurifoline] as the compound, how does the “inhibition of the swelling of the recto-anus induced by croton oil (RAC)” value (shortened to “inhibition”) read?
A: partially reduced

Q: With COc1ccc2c(c1O)-c1c(O)c(OC)cc3c1[C@H](C2)[N+](C)(C)CC3 [Magnoflorine] as the compound, how does the “inhibition” value read?
A: completely inhibited

Q: For Chelerythrine, which “inhibition” value is on record?
A: partially reduced
